Test system: D54 ERlucT glioma cells, NLG luciferase reporter, 24 h
Assay: blockers of NLG in glioma reporter line – cell-based, D54 ERlucT glioma, luciferase, dry powder, set 5, dose response (AID 652059)

`CC(=O)N[C@H]1[C@@H](O[C@@H]2OC(C[C@@H](O)C3O[C@@H](n4ccc(=O)[nH]c4=O)[C@H](O)[C@@H]3O)[C@H](O)[C@H](O)[C@H]2NC(=O)/C=C/CCCCCCCCCCC(C)C)O[C@H](CO)[C@@H](O)[C@@H]1O` (stereo partly specified) showed an AC40 of 520 nM.
